From ChEMBL document CHEMBL1201862, “PubChem BioAssay data set” (2004)
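Tested at 5 concentrations; 48 h exposure; 96-well plates; endpoints linearly interpolated, else capped at highest concentration. GI50: concentration for 50% inhibition of growth.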 Activity calls are given as the source filed them. Rule as the data show it: active = GI50 up to about 1.1 µM and inactive = higher.

Assays:
Test in all cases: growth of human tumour cells (NCI), 48 h
HT-29 = system: HT-29
IGROV-1 = system: IGROV-1
SNB-19 = system: SNB-19
SW-620 = system: SW-620
KM12 = system: KM12
SF-268 = system: SF-268
A549 = system: A549
RXF 393 = system: RXF 393
NCI-H460 = system: NCI-H460
OVCAR-8 = system: OVCAR-8
SK-MEL-28 = system: SK-MEL-28
SN12C = system: SN12C
SK-MEL-2 = system: SK-MEL-2
OVCAR-5 = system: OVCAR-5
SF-295 = system: SF-295
786-0 = system: 786-0
OVCAR-3 = system: OVCAR-3
SR = system: SR
HOP-62 = system: HOP-62
HL-60 = system: HL-60

Row | Structure (SMILES) | GI50 (HT-29) | GI50 (IGROV-1) | GI50 (SNB-19) | GI50 (SW-620) | GI50 (KM12) | GI50 (SF-268) | GI50 (A549) | GI50 (RXF 393) | GI50 (NCI-H460) | GI50 (OVCAR-8) | GI50 (SK-MEL-28) | GI50 (SN12C) | GI50 (SK-MEL-2) | GI50 (OVCAR-5) | GI50 (SF-295) | GI50 (786-0) | GI50 (OVCAR-3) | GI50 (SR) | GI50 (HOP-62) | GI50 (HL-60)
1 | COc1cc(/C=C2\C[C@H]3[C@@H]4CCc5cc(O)ccc5[C@H]4CC[C@]3(C)C2=O)cc(OC)c1OC | 12.5 µM (inactive) | 15.3 µM (inactive) | 19.9 µM (inactive) | 16.7 µM (inactive) | 14 µM (inactive) | 8.73 µM (inactive) | 15.6 µM (inactive) | 9.57 µM (inactive) | 45.2 µM (inactive) | 15.5 µM (inactive) | 11.8 µM (inactive) | 15.1 µM (inactive) | 14 µM (inactive) | 17.7 µM (inactive) | 12.6 µM (inactive) | 15.6 µM (inactive) | 11.4 µM (inactive) | 3.21 µM (inactive) | 12.4 µM (inactive) | 
2 | CC[C@@H]1ON(C)[C@H]2CN(C)C(=O)[C@@H]12 | > 100 µM (inactive) | > 100 µM (inactive) | > 100 µM (inactive) | > 100 µM (inactive) |  |  | > 100 µM (inactive) |  | > 100 µM (inactive) | > 100 µM (inactive) | > 100 µM (inactive) | > 100 µM (inactive) | > 100 µM (inactive) | > 100 µM (inactive) | > 100 µM (inactive) |  | > 100 µM (inactive) | > 100 µM (inactive) | > 100 µM (inactive) | > 100 µM (inactive)
3 | O=c1n(Cc2ccccc2)c2ccccc2n1CC1CS1 (configuration not stated) |  | > 100 µM (inactive) | > 100 µM (inactive) | > 100 µM (inactive) | > 100 µM (inactive) | > 100 µM (inactive) | > 100 µM (inactive) |  |  | > 100 µM (inactive) | > 100 µM (inactive) | > 100 µM (inactive) | > 100 µM (inactive) | > 100 µM (inactive) | > 100 µM (inactive) |  | > 100 µM (inactive) | > 100 µM (inactive) | > 100 µM (inactive) | > 100 µM (inactive)
4 | COc1ccc(C2C(Cl)C(=O)N2NC(=O)c2ccc(NC(C)=O)cc2)cc1OC (configuration not stated) | > 100 µM (inactive) | > 100 µM (inactive) | > 100 µM (inactive) | > 100 µM (inactive) | > 100 µM (inactive) | > 100 µM (inactive) | > 100 µM (inactive) |  | > 100 µM (inactive) | > 100 µM (inactive) | > 100 µM (inactive) |  | > 100 µM (inactive) | > 100 µM (inactive) | > 100 µM (inactive) |  | > 100 µM (inactive) | > 100 µM (inactive) | > 100 µM (inactive) | > 100 µM (inactive)
5 | COC(=O)C1CCC(=O)N1C(c1ccc(OC)cc1)c1ccc2c(c1)OCO2 (configuration not stated) | 34.9 µM (inactive) | 52 µM (inactive) | 37.2 µM (inactive) | 33.5 µM (inactive) | 9.46 µM (inactive) | 53.6 µM (inactive) | 47.5 µM (inactive) |  | 40.4 µM (inactive) | 48.9 µM (inactive) | 57.1 µM (inactive) | 57.9 µM (inactive) | 43.7 µM (inactive) | 50 µM (inactive) | 17 µM (inactive) | 62.8 µM (inactive) | 50.8 µM (inactive) | 31 µM (inactive) | 53.2 µM (inactive) | 21.2 µM (inactive)
6 | N#Cc1ccc([N+](=O)[O-])cc1NC(N)=S | > 100 µM (inactive) | > 100 µM (inactive) | > 100 µM (inactive) | > 100 µM (inactive) | > 100 µM (inactive) | > 100 µM (inactive) | > 100 µM (inactive) |  |  | > 100 µM (inactive) | > 100 µM (inactive) | > 100 µM (inactive) | > 100 µM (inactive) | > 100 µM (inactive) | > 100 µM (inactive) |  | > 100 µM (inactive) | > 100 µM (inactive) | > 100 µM (inactive) | 
7 | CC(C)CCCC(C)[C@H]1CC[C@H]2[C@@H]3CC[C@H]4C[C@@H](CCC=C(c5cc(Cl)c(O)c(C(=O)O)c5)c5cc(Cl)c(O)c(C(=O)O)c5)CC[C@]4(C)[C@H]3CC[C@]12C (some centres not stated) | > 50 µM (inactive) | > 50 µM (inactive) | > 50 µM (inactive) | > 50 µM (inactive) | > 50 µM (inactive) | > 50 µM (inactive) | > 50 µM (inactive) | > 50 µM (inactive) | 25.4 µM (inactive) | > 50 µM (inactive) | > 50 µM (inactive) | > 50 µM (inactive) | > 50 µM (inactive) | > 50 µM (inactive) | > 50 µM (inactive) | 32.2 µM (inactive) | > 50 µM (inactive) |  | > 50 µM (inactive) | > 50 µM (inactive)
8 | CC(C)COC(=O)N1N=NC2C3CC(=O)C(O3)C21 (configuration not stated) | > 100 µM (inactive) | > 100 µM (inactive) | > 100 µM (inactive) | > 100 µM (inactive) | > 100 µM (inactive) | > 100 µM (inactive) | > 100 µM (inactive) | > 100 µM (inactive) | > 100 µM (inactive) | > 100 µM (inactive) | > 100 µM (inactive) | > 100 µM (inactive) | > 100 µM (inactive) | > 100 µM (inactive) | > 100 µM (inactive) | > 100 µM (inactive) | > 100 µM (inactive) | > 100 µM (inactive) | > 100 µM (inactive) | 
9 | Cc1ccc(-c2cc(=O)c(=O)[nH][nH]2)cc1 | > 100 µM (inactive) | 45.1 µM (inactive) |  | > 100 µM (inactive) | > 100 µM (inactive) | > 100 µM (inactive) | > 100 µM (inactive) | > 100 µM (inactive) | > 100 µM (inactive) | > 100 µM (inactive) | > 100 µM (inactive) | > 100 µM (inactive) | > 100 µM (inactive) | > 100 µM (inactive) | > 100 µM (inactive) | > 100 µM (inactive) | > 100 µM (inactive) | > 100 µM (inactive) | > 100 µM (inactive) | 
10 | C=C(CBr)CCCOCc1ccccc1 | 21.2 µM (inactive) | 21.4 µM (inactive) | 15.6 µM (inactive) | 32.7 µM (inactive) | 18.9 µM (inactive) | 15.8 µM (inactive) | 38.4 µM (inactive) |  | 18.1 µM (inactive) | 17 µM (inactive) | 40.9 µM (inactive) | 24.5 µM (inactive) | 18.6 µM (inactive) | 18.7 µM (inactive) | 36.1 µM (inactive) | 36.6 µM (inactive) | 19.1 µM (inactive) | 31.3 µM (inactive) | 22.2 µM (inactive) | 23.5 µM (inactive)
11 | O=C1c2ccccc2-c2cccc3ccc(Cc4ccc5ccccc5c4)c1c23 | > 100 µM (inactive) | > 100 µM (inactive) | > 100 µM (inactive) | > 100 µM (inactive) | > 100 µM (inactive) | > 100 µM (inactive) | > 100 µM (inactive) | 48.2 µM (inactive) | > 100 µM (inactive) | > 100 µM (inactive) | > 100 µM (inactive) | > 100 µM (inactive) | > 100 µM (inactive) | > 100 µM (inactive) | > 100 µM (inactive) | 76.6 µM (inactive) | > 100 µM (inactive) |  | > 100 µM (inactive) | > 100 µM (inactive)
12 | CC/C=C\C/C=C\C/C=C\CCCCCCCC(=O)OCC | > 100 µM (inactive) | > 100 µM (inactive) |  | > 100 µM (inactive) | > 100 µM (inactive) | > 100 µM (inactive) | > 100 µM (inactive) |  |  | > 100 µM (inactive) | > 100 µM (inactive) | > 100 µM (inactive) | > 100 µM (inactive) | > 100 µM (inactive) | > 100 µM (inactive) | > 100 µM (inactive) | > 100 µM (inactive) | > 100 µM (inactive) | > 100 µM (inactive) | > 100 µM (inactive)
13 | O=C1CC(C(COCc2ccccc2)OCc2ccccc2)CC(=O)N1 (configuration not stated) | > 100 µM (inactive) | > 100 µM (inactive) | > 100 µM (inactive) | > 100 µM (inactive) | > 100 µM (inactive) | > 100 µM (inactive) | > 100 µM (inactive) |  |  | > 100 µM (inactive) | > 100 µM (inactive) | > 100 µM (inactive) |  | > 100 µM (inactive) | > 100 µM (inactive) | > 100 µM (inactive) | > 100 µM (inactive) | > 100 µM (inactive) | > 100 µM (inactive) | > 100 µM (inactive)
14 | CC(C)(C)[Si](C)(C)O[C@@H](C(=O)OC1C=CCCC1)[C@@H](NC(=O)c1ccccc1)c1ccccc1 (some centres not stated) | 14.3 µM (inactive) | 37.3 µM (inactive) | 28.8 µM (inactive) | 26.2 µM (inactive) | 25.6 µM (inactive) | 69.5 µM (inactive) | 17.6 µM (inactive) | 3.68 µM (inactive) | 19.9 µM (inactive) | 56.4 µM (inactive) | 34 µM (inactive) | 21 µM (inactive) | 18 µM (inactive) | 24.4 µM (inactive) | 18.9 µM (inactive) | 23.8 µM (inactive) | 16.1 µM (inactive) | 15.1 µM (inactive) | 18.4 µM (inactive) | 
15 | COc1cc(C2c3cc4c(cc3[C@@H](Nc3ccc(F)cc3)C3COC[C@H]23)OCO4)cc(OC)c1O (some centres not stated) | 3.44 µM (inactive) | 11.9 µM (inactive) | 0.885 µM (active) | 3.15 µM (inactive) | 4.66 µM (inactive) | 3.85 µM (inactive) | 0.451 µM (active) |  | 0.152 µM (active) | 2.8 µM (inactive) | 5 µM (inactive) | 2 µM (inactive) |  | 3.62 µM (inactive) | 0.877 µM (active) | 1.75 µM (inactive) |  | 0.543 µM (active) | 2.45 µM (inactive) | 0.533 µM (active)
